Biological target: T1, α-Mannosidase (Jack bean) (Canavalia ensiformis, UniProt C0HJB3)
T1 sequence (C0HJB3 1-981): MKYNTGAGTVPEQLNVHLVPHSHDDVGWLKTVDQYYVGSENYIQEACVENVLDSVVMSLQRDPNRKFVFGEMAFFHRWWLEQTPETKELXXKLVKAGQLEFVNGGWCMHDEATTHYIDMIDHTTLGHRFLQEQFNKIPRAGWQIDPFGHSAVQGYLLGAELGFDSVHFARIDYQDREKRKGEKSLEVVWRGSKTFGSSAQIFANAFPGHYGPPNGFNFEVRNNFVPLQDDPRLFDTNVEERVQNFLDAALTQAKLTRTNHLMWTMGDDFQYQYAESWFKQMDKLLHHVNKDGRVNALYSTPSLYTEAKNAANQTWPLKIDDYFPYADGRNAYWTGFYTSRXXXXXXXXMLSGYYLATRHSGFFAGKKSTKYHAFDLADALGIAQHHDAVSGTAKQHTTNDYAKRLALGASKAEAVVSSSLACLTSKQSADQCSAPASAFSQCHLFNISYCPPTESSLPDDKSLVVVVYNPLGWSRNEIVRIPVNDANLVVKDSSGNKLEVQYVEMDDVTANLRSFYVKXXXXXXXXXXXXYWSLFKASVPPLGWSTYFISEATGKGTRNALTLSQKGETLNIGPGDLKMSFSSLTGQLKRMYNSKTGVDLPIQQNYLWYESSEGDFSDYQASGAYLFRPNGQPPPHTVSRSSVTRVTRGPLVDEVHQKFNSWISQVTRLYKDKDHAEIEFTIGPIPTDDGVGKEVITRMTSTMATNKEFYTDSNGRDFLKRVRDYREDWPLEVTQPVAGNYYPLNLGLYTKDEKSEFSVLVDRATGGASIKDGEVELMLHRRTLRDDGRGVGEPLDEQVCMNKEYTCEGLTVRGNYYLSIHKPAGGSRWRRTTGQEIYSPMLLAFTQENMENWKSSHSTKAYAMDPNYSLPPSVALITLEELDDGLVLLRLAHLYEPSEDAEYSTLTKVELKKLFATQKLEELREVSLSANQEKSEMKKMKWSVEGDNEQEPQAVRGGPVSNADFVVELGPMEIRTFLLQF
Experiment: Mannosidase screening assay (p-nitrophenyl-α-mannopyranoside substrate, absorbance at 405 nm)
Assay type: biochemical
Conditions: Jack bean enzyme, sodium acetate buffer pH 4.5, 37° for 30 min
Description: This can be demostrated by the ability of the compound to inhibit Jack bean mannosidase or mannosidase II as follows: Mannosidase Screening Assay (Kang, et al., Plant Physiol. 71:551-554 (1983)). Activities of mannosidase are first screened with Jack bean enzyme using p-nitrophenyl substrate as follows using a 96-well microplate. Total Rxn mix 200µl. • 1. Add compounds to be tested and dilute to 100µl with H2O. • 2. Add 25µl of 1M sodium acetate buffer pH 4.5 containing 10mM ZnCl2. • 3. Add 25µl of enzyme or approximately 0.05 µg protein. • 4. Mix and incubate at R.T. for 30 min. • 5. Add 50µl of 10 mM p-nitrophenyl-α-mannopyranoside in H2O to start the Rxn and incubate 37° for 30 min. Stop reaction by addition 100µl of 0.2M (2%) sodium carbonate solution (pH∼12). Read absorbance at 405 nm.

Question: For CN[C@@H]1[C@@H](O)[C@@H](O)[C@H](O)[C@H]1CO [1,3β,5β,R=CH3, (1α,2β,3β,4α,5β)-Methyl[2,3,4-trihydroxy-5-(hydroxymethyl)cyclopentyl]amine], which IC50 is on record?
Answer: 62.1 nM

From EP0451834B1, “Alpha-mannosidase and fucosidase inhibitors” (MERRELL PHARMACEUTICALS INC., priority 1990, dated 1991)
